Results published in PubChem BioAssay AID270 (DTP/NCI, 2004).
Inconclusive results are not listed.

Tested on: BDF1 mice, s.c. Lewis lung carcinoma, T/C %
Test: NCI In Vivo Anticancer Drug Screen. Data for tumor model Lewis Lung Carcinoma (subcutaneous) in B6D2F1 (BDF1) mice
Outline: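 The value reflects a ratio in which the treated cohort's survival time or tumour size is compared against mice receiving only vehicle.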

`COc1c(OC)c(OC)c(-c2cc(=O)c3c(OC)c(OC)c(OC)c(OC)c3o2)c(OC)c1OC` was tested, and the T/C (endpoint: mean tumor weight, dose: 50.0 mg/kg/injection, schedule: Q01DX011 (sc), vehicle: steriod suspending solution, higher = larger tumour) was 97 % of control, the T/C (endpoint: mean tumor weight, dose: 100.0 mg/kg/injection, schedule: Q01DX011 (sc), vehicle: steriod suspending solution, higher = larger tumour) was 105 % of control and the T/C (endpoint: mean tumor weight, dose: 200.0 mg/kg/injection, schedule: Q01DX011 (sc), vehicle: steriod suspending solution, higher = larger tumour) was 97 % of control. The T/C (endpoint: mean tumor weight, dose: 400.0 mg/kg/injection, schedule: Q01DX011 (sc), vehicle: steriod suspending solution, higher = larger tumour) was 83 % of control.

In the case of `Nc1nc(=S)c2ncn(C3CC(O)C(CO)O3)c2[nH]1` (stereo unspecified), the T/C (endpoint: median survival time, dose: 4.0 mg/kg/injection, schedule: Q01DX009 (ip), vehicle: saline, higher = longer survival) is reported as 122 % of control, the T/C (endpoint: median survival time, dose: 8.0 mg/kg/injection, schedule: Q01DX009 (ip), vehicle: saline, higher = longer survival) is reported as 118 % of control and the T/C (endpoint: median survival time, dose: 16.0 mg/kg/injection, schedule: Q01DX009 (ip), vehicle: saline, higher = longer survival) is reported as 108 % of control. The T/C (endpoint: median survival time, dose: 64.0 mg/kg/injection, schedule: Q01DX009 (ip), vehicle: saline, higher = longer survival) was 113 % of control.

`CC1=C(/C=C/C(C)=C/C=C/C(C)=C/C=O)C(C)(C)CCC1` was tested, and the T/C (endpoint: median survival time, dose: 16.0 mg/kg/injection, schedule: Q01DX005 (ip), vehicle: DMSO, higher = longer survival) was 153 % of control and the T/C (endpoint: median survival time, dose: 32.0 mg/kg/injection, schedule: Q01DX005 (ip), vehicle: DMSO, higher = longer survival) was 151 % of control.

In the case of `NS(=O)(=O)c1ncnc2nc[nH]c12`, the T/C (endpoint: mean tumor weight, dose: 5.0 mg/kg/injection, schedule: Q01DX011 (ip), vehicle: methylcellulose (MC), higher = larger tumour) is reported as 88 % of control and the T/C (endpoint: mean tumor weight, dose: 25.0 mg/kg/injection, schedule: Q01DX011 (ip), vehicle: methylcellulose (MC), higher = larger tumour) is reported as 87 % of control.

In the case of `O=P(c1ccccc1)(c1ccccc1)P(=O)(c1ccccc1)c1ccccc1`, the T/C (endpoint: mean tumor weight, dose: 33.0 mg/kg/injection, schedule: Q01DX011 (ip), vehicle: other, higher = larger tumour) is reported as 117 % of control, the T/C (endpoint: mean tumor weight, dose: 66.0 mg/kg/injection, schedule: Q01DX011 (ip), vehicle: other, higher = larger tumour) is reported as 79 % of control and the T/C (endpoint: mean tumor weight, dose: 100.0 mg/kg/injection, schedule: Q01DX011 (ip), vehicle: other, higher = larger tumour) is reported as 61 % of control. For the same compound, the T/C (endpoint: mean tumor weight, dose: 150.0 mg/kg/injection, schedule: Q01DX011 (ip), vehicle: other, higher = larger tumour) was 94 % of control, the T/C (endpoint: mean tumor weight, dose: 200.0 mg/kg/injection, schedule: Q01DX011 (ip), vehicle: methylcellulose (MC), higher = larger tumour) was 87 % of control and the T/C (endpoint: mean tumor weight, dose: 300.0 mg/kg/injection, schedule: Q01DX011 (ip), vehicle: methylcellulose (MC), higher = larger tumour) was 38 % of control.

With `O=C1C=CC(=Nc2ccc(O)c3ncccc23)c2cccnc21` the T/C (endpoint: mean tumor weight, dose: 12.5 mg/kg/injection, schedule: Q01DX011 (ip), vehicle: saline, higher = larger tumour) was 94 % of control, the T/C (endpoint: mean tumor weight, dose: 25.0 mg/kg/injection, schedule: Q01DX011 (ip), vehicle: saline, higher = larger tumour) was 49 % of control and the T/C (endpoint: mean tumor weight, dose: 50.0 mg/kg/injection, schedule: Q01DX011 (ip), vehicle: saline, higher = larger tumour) was 26 % of control.

With `CC(C)=CC(=O)OCC[N+](C)(C)C` the T/C (endpoint: median survival time, dose: 1.56 mg/kg/injection, schedule: Q01DX009 (ip), vehicle: saline, higher = longer survival) was 96 % of control, the T/C (endpoint: median survival time, dose: 3.12 mg/kg/injection, schedule: Q01DX009 (ip), vehicle: saline, higher = longer survival) was 103 % of control and the T/C (endpoint: median survival time, dose: 12.5 mg/kg/injection, schedule: Q01DX009 (ip), vehicle: saline, higher = longer survival) was 103 % of control. For the same compound, the T/C (endpoint: median survival time, dose: 25.0 mg/kg/injection, schedule: Q01DX009 (ip), vehicle: saline, higher = longer survival) was 113 % of control.

`CN(CCCOS(C)(=O)=O)CCCOS(C)(=O)=O` was tested, and the T/C (endpoint: mean tumor weight, dose: 5.0 mg/kg/injection, schedule: Q01DX011 (ip), vehicle: saline, higher = larger tumour) was 85 % of control, the T/C (endpoint: mean tumor weight, dose: 10.0 mg/kg/injection, schedule: Q01DX011 (ip), vehicle: saline, higher = larger tumour) was 78 % of control and the T/C (endpoint: mean tumor weight, dose: 20.0 mg/kg/injection, schedule: Q01DX011 (ip), vehicle: saline, higher = larger tumour) was 49 % of control. For the same compound, the T/C (endpoint: mean tumor weight, dose: 40.0 mg/kg/injection, schedule: Q01DX011 (ip), vehicle: saline, higher = larger tumour) was 59 % of control.

For `Cc1c2cc3c(c1O)C(=O)CC(O3)c1ccc(O)c(c1)-c1ccc(O)c(c1)C(=O)OCC1OC(O2)C(O)C(O)C1O` (stereo unspecified), the T/C (endpoint: median survival time, dose: 0.13 mg/kg/injection, schedule: Q01DX009 (ip), vehicle: Klucel (hydroxypropylcellulose) (HPC), higher = longer survival) was 112 % of control, the T/C (endpoint: median survival time, dose: 0.25 mg/kg/injection, schedule: Q01DX009 (ip), vehicle: Klucel (hydroxypropylcellulose) (HPC), higher = longer survival) was 102 % of control and the T/C (endpoint: median survival time, dose: 0.5 mg/kg/injection, schedule: Q01DX009 (ip), vehicle: Klucel (hydroxypropylcellulose) (HPC), higher = longer survival) was 100 % of control. For the same compound, the T/C (endpoint: median survival time, dose: 1.0 mg/kg/injection, schedule: Q01DX009 (ip), vehicle: Klucel (hydroxypropylcellulose) (HPC), higher = longer survival) was 101 % of control.

`CC1OC(O[C@@H]2C=C3CC[C@@H]4[C@H](CC[C@]5(C)[C@@H](c6ccc(=O)oc6)CC[C@]45O)[C@@]3(C)CC2)C(O)C(OC2OC(CO)C(O)C(O)C2O)C1O` (stereo partly specified) was tested, and the T/C (endpoint: mean tumor weight, dose: 1.2 mg/kg/injection, schedule: Q01DX011 (ip), vehicle: carboxymethylcellulose (CMC), higher = larger tumour) was 106 % of control, the T/C (endpoint: mean tumor weight, dose: 2.5 mg/kg/injection, schedule: Q01DX011 (ip), vehicle: carboxymethylcellulose (CMC), higher = larger tumour) was 102 % of control and the T/C (endpoint: mean tumor weight, dose: 5.0 mg/kg/injection, schedule: Q01DX011 (ip), vehicle: carboxymethylcellulose (CMC), higher = larger tumour) was 80 % of control.
